{
  "source": "patent US9555137B2",
  "about": "“Uses of labeled HSP90 inhibitors” (Sloan-Kettering Institute for Cancer Research, priority 2011, dated 2017)",
  "key": {"HSP90 [1]": {"test_system": "HSP90", "test": "131I-PU-H71 saturation binding in intact cancer cells", "type": "cell-based", "conditions": "MDA-MB-468 cells", "quoted_text": "The solutions were shaken in an orbital shaker and after 1 hr the cells were isolated and washed with ice cold Tris-buffered saline using a Brandel cell harvester. […] To calculate the percentage of HSP90, cellular HSP90 expression was quantified by using standard curves created of recombinant HSP90 purified from HeLa cells (Stressgen#ADI-SPP-770)."}, "in vivo": {"test": "in vivo", "conditions": "3×Tg AD, mouse, ip, 50 mg/kg, AUC 0 to 48 h", "quoted_text": "(§1) We next determined in the brain and plasma of 3×Tg AD mice, the HSP90 inhibitor levels associated with these pharmacodynamic effects (FIG. 43C)."}, "[2]": {"conditions": "mouse, in vivo", "quoted_text": "as §1"}, "HSP90 [3]": {"test_system": "HSP90", "test": "concomitant binding to HSP90 and streptavidin in live K562 cells", "type": "cell-based", "conditions": "for binding in live K562 cells: 100 μM, 4 h; for HSP90-streptavidin binding with K562 cells: live K562 cells", "text": "Having shown that some of the molecules bind concomitantly to HSP90 and streptavidin, we next investigated whether this can similarly be accomplished in live cells."}, "AML cell lines": {"test_system": "AML cell lines", "test": "cell killing and apoptosis in AML cell lines (Acridine Orange/Ethidium Bromide)", "type": "cell-based, human", "conditions": "cultured HEL cells", "description": "To evaluate the sensitivity spectrum of AML cell lines to HSP90 inhibitors, and to investigate a possible relationship between their genetic background and induction of apoptosis by HSP90 therapy, we made use of a varied cell panel. […]\nA ten-fold, in MOLM-13 and M0-91, and two-fold, in Kasumi-1 and SKNO-1, increase in caspase-3,7 activation was observed as early as 24 h. Essentially no live cells were detected for the M0-91 cell line after 48 h of HSP90 inhibitor treatment. […]\nCells were treated for 24, 48 or 72 h with vehicle (DMSO) or inhibitors as indicated. Following staining with Acridine Orange and Ethidium Bromide (1:1 mix of 100 µg/ml), cells were visualized with a fluorescent microscope (Zeiss Axiovert 40 CFL) and counted. Percentage of apoptotic cells was determined from 200-300 cells counted in each group. The percentage of apoptotic cells was calculated as: % Apoptotic cells=(total number of cells with apoptotic nuclei/total number of cells counted)×100."}, "oncogenic HSP90 [4]": {"test_system": "oncogenic HSP90", "test": "PU-FITC binding to EpCAM+ circulating tumor cells relative to leukocytes", "type": "cell-based, human", "conditions": "patient with HER2+ metastatic breast cancer", "description": "FIG. 20. PU-H71-FITC2 accumulation in EpCAM+ Circulating Tumor Cells: PBMC's isolated from whole blood were pre-treated with PU-FITC or controls (PU-FITC9, DMSO, 1 μM/2×10^6 cells/ml, 4 hrs). Cells were then stained with CD45, CD14 and EpCAM antibodies. (A) Cells are gated to exclude dead cells. Viable cells are then gated to determine EpCAM+ vs CD45+ cells. Monocytes are excluded from the analysis by gating the CD45+ cells further as FSC vs. CD14. (B) Histogram plots showing the PU-FITC Median florescence intensity (MFI) of CD45+CD14− cells (blue) and EpCAM+ cells (Red). The drug accumulation in EpCAM+ cells is calculated as the ratio of MFI EpCAM+/MFI CD45+CD14− (circulating tumor cells/leukocytes) after subtracting the values of the DMSO and PU-FITC9 controls (used to control for non-specific and background binding). […]\nAll experimental blood sampling procedures were performed under the Institutional Review Board-approved protocols at Memorial Sloan Kettering Cancer Center. […] PBMC's are isolated on ficoll gradients, cells are counted and viability determined by trypan blue dye exclusion assay. […] Values are calculated as a ratio of the MFI of Tumor (EpCAM+CD45−CD14−): MFI of EpCAM−CD45+CD14− cells. […] This allows quantitation of the FITC fluorescence intensity in molecules of equivalent soluble fluorochrome (MESF units). […]"}, "oncogenic HSP90 [5]": {"test_system": "oncogenic HSP90", "test": "PU-FITC binding in primary leukemia samples, blasts relative to normal lymphocytes (flow cytometry)", "type": "cell-based, human", "conditions": "blast crisis CML (bcCML) cells"}, "MOLM-13 cells": {"test_system": "MOLM-13 cells", "type": "cell-based, human"}, "[6]": {"test": "[124I]-PU-H71 PET in cancer patients, tumor exposure to PU-H71", "type": "in vivo, human", "conditions": "human blood circulation"}},
  "note": "Where two headings read alike, the source gives them in different places.",
  "data": [
    {"molecule": "CC(C)NCCCn1c(Sc2cc3c(cc2[131I])OCO3)nc2c(N)ncnc21", "note": "[^131I-PU-H71]", "values": [
      {"measurement": "available cellular binding sites bound per cell", "setting": "HSP90 [1]", "value": "≤ 5.5×10^6"},
      {"measurement": "fraction of total cellular HSP90 bound", "setting": "HSP90 [1]", "value": "26.6-33.5%"}
    ]},
    {"molecule": "CC(C)(C)CNCCn1c(Sc2cc3c(cc2I)OCO3)nc2c(N)ncnc21", "note": "[PU-HZ151]", "values": [
      {"measurement": "AUC(0-t)", "setting": "in vivo; exposure of the cortex", "value": 17.5, "unit": "µM·h"},
      {"measurement": "AUC(0-t)", "setting": "in vivo; exposure of the plasma", "value": 7.1, "unit": "µM·h"},
      {"measurement": "cortex AUC relative to plasma AUC", "setting": "[2]", "value": 2.5, "unit": "times"}
    ]},
    {"molecule": "CC(C)N(CCCn1c(Sc2cc3c(cc2I)OCO3)nc2c(N)ncnc21)C(=O)CCCCCNC(=O)CCCCCNC(=O)CCCC[C@@H]1SC[C@@H]2NC(=O)N[C@@H]21", "note": "[PU-H71-biotin8]", "values": [
      {"measurement": "binding in live K562 cells", "setting": "HSP90 [3]", "value": "able to permeate the cell membrane"},
      {"measurement": "HSP90-streptavidin binding with K562 cells", "setting": "HSP90 [3]", "value": "Yes"}
    ]},
    {"molecule": "Nc1ncnc2c1nc(Sc1cc3c(cc1I)OCO3)n2CCCNC(=O)CCCC[C@@H]1SC[C@@H]2NC(=O)N[C@@H]21", "note": "[PU-H71-biotin3]", "values": [
      {"measurement": "HSP90-streptavidin binding with K562 cells", "setting": "HSP90 [3]", "value": "No"}
    ]},
    {"molecule": "Nc1ncnc2c1nc(Sc1cc3c(cc1I)OCO3)n2CCCNC(=O)CCOCCOCCOCCOCCNC(=O)CCCC[C@@H]1SC[C@@H]2NC(=O)N[C@@H]21", "note": "[PU-H71-biotin6]", "values": [
      {"measurement": "band at approximately 90 kDa in live K562 cells", "setting": "HSP90 [3]; 0.5 μM", "value": "still shows a faint band"},
      {"measurement": "binding in live K562 cells", "setting": "HSP90 [3]", "value": "able to permeate the cell membrane"},
      {"measurement": "HSP90-streptavidin binding with K562 cells", "setting": "HSP90 [3]", "value": "Yes"}
    ]},
    {"molecule": "Nc1ncnc2c1nc(Sc1cc3c(cc1I)OCO3)n2CCCNC(=O)CCCCCNC(=O)CCCCCNC(=O)CCCC[C@@H]1SC[C@@H]2NC(=O)N[C@@H]21", "note": "[PU-H71-biotin5]", "values": [
      {"measurement": "binding in live K562 cells", "setting": "HSP90 [3]", "value": "able to permeate the cell membrane"},
      {"measurement": "HSP90-streptavidin binding with K562 cells", "setting": "HSP90 [3]", "value": "Yes"}
    ]},
    {"molecule": "CC(C)N(CCCn1c(Sc2cc3c(cc2I)OCO3)nc2c(N)ncnc21)C(=O)CCCCCNC(=O)CCCC[C@@H]1SC[C@@H]2NC(=O)N[C@@H]21", "note": "[PU-H71-blotin7]", "values": [
      {"measurement": "HSP90-streptavidin binding with K562 cells", "setting": "HSP90 [3]", "value": "No"}
    ]},
    {"molecule": "Nc1ncnc2c1nc(Sc1cc3c(cc1I)OCO3)n2CCCNCCOCCOCCOCCNC(=O)CCCC[C@@H]1SC[C@@H]2NC(=O)N[C@@H]21", "note": "[PU-H71-biotin]", "values": [
      {"measurement": "HSP90-streptavidin binding with K562 cells", "setting": "HSP90 [3]", "value": "No"}
    ]},
    {"molecule": "CC(C)N(CCCn1c(Sc2cc3c(cc2I)OCO3)nc2c(N)ncnc21)C(=O)CCCC[C@@H]1SC[C@@H]2NC(=O)N[C@@H]21", "note": "[PU-H71-biotin2]", "values": [
      {"measurement": "HSP90-streptavidin binding with K562 cells", "setting": "HSP90 [3]", "value": "No"}
    ]},
    {"molecule": "O=c1[nH]c2ccccc2n1C1CCN(Cc2ccc(-c3nc4cc5[nH]cnc5cc4nc3-c3ccccc3)cc2)CC1", "note": "[AKTi]", "values": [
      {"measurement": "cells committed to undergo apoptosis", "setting": "AML cell lines", "value": "little to no effect"}
    ]},
    {"molecule": "Nc1ncnc2c1nc(Sc1cc3c(cc1I)OCO3)n2CCCNC(=O)CCCCCNC(=O)CCCC[C@@H]1SC[C@@H]2NC(=O)N[C@@H]21", "note": "[PU-H71-biotin4]", "values": [
      {"measurement": "HSP90-streptavidin binding with K562 cells", "setting": "HSP90 [3]", "value": "No"}
    ]},
    {"molecule": "CC(C)N(CCCn1c(Sc2cc3c(cc2I)OCO3)nc2c(N)ncnc21)C(=S)Nc1ccc(-c2c3ccc(=O)cc-3oc3cc(O)ccc23)c(C(=O)O)c1", "note": "[PU-H71-FITC2]", "values": [
      {"measurement": "binding of circulating tumor cells relative to leukocytes (CD45+CD14−)", "setting": "oncogenic HSP90 [4]", "value": "around 84 fold"},
      {"measurement": "binding relative to normal lymphocytes", "setting": "oncogenic HSP90 [5]", "value": "over 4 fold"},
      {"measurement": "viability of MOLM-13 cells", "setting": "MOLM-13 cells", "value": "decrease the viability of MOLM-13 cells"}
    ]},
    {"molecule": "CC(C)NCCCn1c(Sc2cc3c(cc2[124I])OCO3)nc2c(N)ncnc21", "note": "[[^124I]-PU-H71]", "values": [
      {"measurement": "tumor uptake from ROI analysis", "setting": "4 h", "value": "0.35±0.07", "unit": "% ID/g"},
      {"measurement": "activity in ROI circumscribing the entire mouse", "setting": "4 h PET", "value": "40-50 % of the administered activity"},
      {"measurement": "concentration in tumor relative to bone", "setting": "4 h p.a.", "value": 9, "unit": "fold"},
      {"measurement": "concentration in tumor relative to brain", "setting": "4 h p.a.", "value": 40, "unit": "fold"},
      {"measurement": "concentration in tumor relative to heart", "setting": "4 h p.a.", "value": 10, "unit": "fold"},
      {"measurement": "concentration in tumor relative to muscle", "setting": "4 h p.a.", "value": 18, "unit": "fold"},
      {"measurement": "concentration in tumor relative to spleen", "setting": "4 h p.a.", "value": 6, "unit": "fold"},
      {"measurement": "[Atumor] activity concentration in tumor", "setting": "24 h", "value": "~0.14±0.05", "unit": "% ID/g"},
      {"measurement": "tumor uptake from ROI analysis", "setting": "24 h", "value": "0.083±0.02", "unit": "% ID/g"},
      {"measurement": "tumor uptake from ROI analysis", "setting": "48 h", "value": "0.058±0.02", "unit": "% ID/g"},
      {"measurement": "tumor uptake from ROI analysis", "setting": "72 h", "value": "0.031±0.01", "unit": "% ID/g"},
      {"measurement": "tumor uptake from ROI analysis", "setting": "100 h", "value": "0.024±0.008", "unit": "% ID/g"},
      {"measurement": "maximum thyroid activity", "setting": "between 4 and 28 h, no potassium iodide", "value": "< 0.4 % of the administered activity"},
      {"measurement": "tumor-to-blood activity concentration ratio", "setting": "by ~12 h postinjection", "value": "≥ 10"},
      {"measurement": "time by which cleared from MDA-MB-468 tumors", "setting": "post-administration", "value": "≤ 150", "unit": "h"},
      {"measurement": "blood t1/2, rapid clearance", "setting": "[6]", "value": "≈ 20 min"}
    ]},
    {"molecule": "CC(C)N(CCCn1c(Sc2cc3c(cc2I)OCO3)nc2c(N)ncnc21)C(=O)CCOCCOCCOCCOCCNC(=O)CCCC[C@@H]1SC[C@@H]2NC(=O)N[C@@H]21", "note": "[PU-H71-biotin9]", "values": [
      {"measurement": "binding in live K562 cells", "setting": "HSP90 [3]", "value": "able to permeate the cell membrane"},
      {"measurement": "HSP90-streptavidin binding with K562 cells", "setting": "HSP90 [3]", "value": "Yes"}
    ]}
  ]
}
